The record followed here is US8110217B2, “Sphingomyelin liposomes for the treatment of hyperactive bladder disorders” (priority 2001, dated 2012).

Entries after “also recorded” stand apart in the source; their conditions may differ.

The test concerns hyperactive bladder (PS/KCl). Put plainly: Continuous CMG, hyperactive bladder induced by PS/KCl (Examples 5-6). It counts as in vivo, female Sprague-Dawley rats. The note with it: for Amplitude / Compliance / ICI / PT: N=6. As for the experimental part: This was followed by instillation of liposomes (LP) in saline (in the case of the former) or LP/KCl.
Intravesical bladder pressure was recorded via a transurethral catheter in adult female Sprague-Dawley rats anesthetized with urethane (1.2 g/kg) administered by subcutaneous injection (sc). Some animals were pretreated with capsaicin (125 mg/kg, sc) four days prior to the experiments. […] Parameters measured included intercontraction interval (ICI), amplitude of bladder contractions, compliance and micturition pressure threshold (PT).
Animal Preparation. Thirty-four female Sprague-Dawley rats (250-300 g) were used in this study. Animals were anesthetized with urethane (1.2 g/kg, sc). Body temperature was maintained in the physiological range using a heating lamp.
Cystometrogram (CMG). A transurethral bladder catheter (PE-50) was connected via a three-way stopcock to a pressure transducer and to a syringe pump. This was used to record intravesical pressure and to infuse solutions into the bladder. A control CMG was performed by slowly filling the bladder with saline (0.04 ml/min) to elicit repetitive voiding. The parameters recorded were amplitude, PT, compliance, and ICI of reflex bladder contractions. Measurements in each animal represented the average of 3 to 5 bladder contractions.
Induction of a Hyperactive Bladder. […] L. Cheng et al., 1993, Am. J. Physiol. 265:R132-138). The experimental design is illustrated in FIG. 7. The KCl concentration used was within the range of concentrations present in normal rat urine (M. Ohnishi et al., 2001, Toxicol. Appl. Pharmacol. 174:122-129).
Preparation of Liposomes (LP). LP were prepared as described by Kirby and Gregoriadis (C. J. Kirby and G. Gregoriadia, 1984, “A simple procedure for preparing liposomes capable of high encapsulation efficiency under mild conditions,” Liposome Technology; G. Gregnoriadis, Ed., C.R.C. Press, Inc., Boca Raton, Fla., Vol. 1, p. 20). Briefly, LP were constructed as a 2:1 molar ratio of L-α-phosphatidylcholine and cholesterol (Sigma Chemical Co., St. Louis, Mo.) to a final lipid concentration of 2 mg/ml in saline. Lipids in chloroform were dried down together in the proper ratio under nitrogen. The residues were reconstituted as LP in saline or 500 mM KCl by intense sonication.
Statistical Analyis. Statistical analyses were performed using Student's t test for paired or unpaired data, where applicable. A p-value less than 0.05 was considered significant. All data are expressed in Example 2 (below) as means±S.E.

Setting [1] is: Table 1B series: saline, KCl 500 mM 1 h, PS/KCl 1 h, LP/KCl 2 h.
Where [2] appears, read: Table 1C series: saline, KCl 500 mM 1 h, PS/KCl 1 h.
Setting [3] is: Table 1C: KCl infusion 2 h after PS/KCl.
Setting [4] is: infusion after PS/KCl, vs pretreatment.

`[Cl-].[K+]` [KCl]: under “PS/KCl series, vs pretreatment”, the “PT change” value is “significantly increased”. Under setting [1], this compound registered an Amplitude of 28.8 ± 1.2 cm H2O, a Compliance of 0.284±0.028 ml/cm H2O, an ICI of 15.8 ± 1.4 min and a PT of 8.2 ± 0.9 cm H2O. Moreover, under setting [2], the Amplitude was determined as 28.8 ± 2.2 cm H2O, the Compliance came out at 0.226±0.050 ml/cm H2O, the ICI was determined as 16.3 ± 1.5 min and the PT is given as 6.8 ± 0.6 cm H2O. Under setting [3], the Amplitude is reported as 33.0 ± 2.3 cm H2O, the Compliance was 0.043±0.014 ml/cm H2O, the ICI was found to be 2.9 ± 0.5 min and the PT was 11.8 ± 1.6 cm H2O. For the same compound, the “change of ICI / CMGs” value (infused alone: PS 10 mg/ml or KCl 500 mM) is reported as “not changed; also recorded: did not significantly change the CMGs”. In addition, under setting [4], the “Compliance change” value is “further reduced” and the “ICI change” value is “not significantly changed; also recorded: did not alter the ICI for periods as long as 120 min”.
